Molecular target: T1, CETP (Homo sapiens, UniProt P11597)
T1 sequence (P11597 18-493): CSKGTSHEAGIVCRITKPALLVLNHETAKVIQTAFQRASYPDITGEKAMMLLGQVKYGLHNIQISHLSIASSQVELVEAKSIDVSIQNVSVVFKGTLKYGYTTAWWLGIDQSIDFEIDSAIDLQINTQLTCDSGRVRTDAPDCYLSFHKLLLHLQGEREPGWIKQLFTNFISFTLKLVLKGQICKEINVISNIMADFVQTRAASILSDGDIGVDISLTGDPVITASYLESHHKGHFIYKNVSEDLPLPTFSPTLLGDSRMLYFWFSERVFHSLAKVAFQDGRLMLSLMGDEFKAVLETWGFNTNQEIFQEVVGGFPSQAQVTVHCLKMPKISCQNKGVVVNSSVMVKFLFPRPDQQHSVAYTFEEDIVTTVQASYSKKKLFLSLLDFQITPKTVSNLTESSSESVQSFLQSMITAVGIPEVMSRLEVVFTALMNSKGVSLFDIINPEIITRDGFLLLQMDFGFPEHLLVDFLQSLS
Experiment: CETP inhibition, buffer assay system (SPA, radiolabeled cholesteryl ester transfer from HDL to LDL)
Format: biochemical
Details: partially purified CETP, selected compounds, read-out: 1C50
Experimental: Activity of CETP inhibitors was determined using a buffer assay system. Partially purified CETP transferred radiolabeled cholesteryl ester from HDL donor particles to biotin-labeled LDL acceptor particles. The reaction was stopped by addition of streptavidin-coupled scintillation proximity assay (SPA) beads. These beads captured the biotinylated acceptor particles and transferred radioactivity was measured. The assay system was purchased and performed according to manufacturer's recommendations (Amersham Biosciences). Inhibitory activity of compounds was determined as percentage of positive control activity containing CETP together with donor and acceptor particles. Serial dilution of compounds was performed in order to determine the IC50 values.

| IC50 [µM] | SMILES |
| --- | --- |
| 0.202 | CC(C)(C)c1ccc(CN(CCOc2ccc(F)cc2)C(=O)c2cccc3cc[nH]c23)cc1 [Compound 90, 1H-Indole-7-carboxylic acid (4-tert-butyl-benzyl)-[2-(4-fluoro-phenoxy)-ethyl]-amide] |
| 0.539 | CC(C)CCN(Cc1ccc(C(C)(C)C)cc1)C(=O)c1cccc2cc[nH]c12 [Compound 1, 1H-Indole-7-carboxylic acid (4-tert-butyl-benzyl)-(3-methyl-butyl)-amide] |
| 0.058 | CC(C)(C)c1ccc(CN(CCc2ccc(F)cc2)C(=O)c2cccc3c2NCC3)cc1 [Compound 76, 2,3-Dihydro-1H-indole-7-carboxylic acid (4-tert-butyl-benzyl)-[2-(4-fluoro-phenyl)-ethyl]-amide] |

Source: US7259183B2, “Indole, indazole and indoline derivatives as CETP inhibitors” (Hoffmann-La Roche Inc., priority 2004, dated 2007)
